Results reported in BindingDB's records for doi:10.1016/s0960-894x(02)00831-4 (Currently Naeja Pharmaceutical, 2002).
pIC50: −log10 of the molar value.

Target: Cathepsin S (Homo sapiens, UniProt P25774)
Assay: Inhibition of recombinant human cathepsin S

Sequence of Cathepsin S (P25774 whole entry): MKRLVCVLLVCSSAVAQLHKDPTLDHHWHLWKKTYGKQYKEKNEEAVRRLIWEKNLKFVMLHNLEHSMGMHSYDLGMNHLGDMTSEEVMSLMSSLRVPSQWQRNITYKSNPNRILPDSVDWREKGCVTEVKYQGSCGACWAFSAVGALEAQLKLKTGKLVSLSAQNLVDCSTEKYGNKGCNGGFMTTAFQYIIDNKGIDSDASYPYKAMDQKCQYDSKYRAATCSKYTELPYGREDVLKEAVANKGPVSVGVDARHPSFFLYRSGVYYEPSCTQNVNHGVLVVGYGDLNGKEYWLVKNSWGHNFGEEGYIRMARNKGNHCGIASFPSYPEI

- pIC50: > 10.00
Compound: O=C(N[C@@H](Cc1ccccc1)C(=O)N[C@@H]1C(=O)N[C@@H]1Oc1ccccc1)OCc1ccccc1 [[(S)-1-((3S,4R)-2-Oxo-4-phenoxy-azetidin-3-ylcarbamoyl)-2-phenyl-ethyl]-carbamic acid benzyl ester]
